Results reported in ChEMBL document CHEMBL4261581, “Synthesis and evaluation of 4-cycloheptylphenols as selective Estrogen receptor-β agonists (SERBAs)” (Eur J Med Chem, 2018).
Activity calls are given as the source filed them. No cut-off for these calls is given here.

Experiments:
[1] = target: Peroxisome proliferator-activated receptor delta (Homo sapiens, UniProt Q03181); experiment: (§1) Agonist activity at GAL4 DNA-binding domain fused PPARdelta receptor (unknown origin) ligand binding domain expressed in UAS-bla HEK 293T cells assessed as beta-lactamase transcriptional activation by FRET-based GeneBLAzer assay; assay type: cell-based
Chain of Peroxisome proliferator-activated receptor delta (Q03181 whole entry, the tested form may be a part): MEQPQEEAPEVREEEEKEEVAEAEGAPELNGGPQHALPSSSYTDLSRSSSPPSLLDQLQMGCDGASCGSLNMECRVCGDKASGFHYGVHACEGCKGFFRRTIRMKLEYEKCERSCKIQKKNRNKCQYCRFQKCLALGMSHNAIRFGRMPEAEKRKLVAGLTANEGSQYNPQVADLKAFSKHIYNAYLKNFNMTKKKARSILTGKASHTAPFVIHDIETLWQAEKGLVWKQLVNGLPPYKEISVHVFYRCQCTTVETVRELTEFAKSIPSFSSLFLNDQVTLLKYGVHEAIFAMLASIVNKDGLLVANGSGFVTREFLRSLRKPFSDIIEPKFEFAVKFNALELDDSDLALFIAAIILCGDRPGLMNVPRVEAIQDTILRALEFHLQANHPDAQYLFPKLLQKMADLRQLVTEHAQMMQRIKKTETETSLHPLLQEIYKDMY

Estrogen receptor beta [2] = target: T1, Estrogen receptor beta (Homo sapiens, UniProt Q92731); experiment: Inhibition of fluorescein-tagged estrogen binding to GST-tagged ERbeta (unknown origin) ligand binding domain after 1 hr by LanthaScreen TR-FRET assay
T1 sequence (Q92731 whole entry, the tested form may be a part): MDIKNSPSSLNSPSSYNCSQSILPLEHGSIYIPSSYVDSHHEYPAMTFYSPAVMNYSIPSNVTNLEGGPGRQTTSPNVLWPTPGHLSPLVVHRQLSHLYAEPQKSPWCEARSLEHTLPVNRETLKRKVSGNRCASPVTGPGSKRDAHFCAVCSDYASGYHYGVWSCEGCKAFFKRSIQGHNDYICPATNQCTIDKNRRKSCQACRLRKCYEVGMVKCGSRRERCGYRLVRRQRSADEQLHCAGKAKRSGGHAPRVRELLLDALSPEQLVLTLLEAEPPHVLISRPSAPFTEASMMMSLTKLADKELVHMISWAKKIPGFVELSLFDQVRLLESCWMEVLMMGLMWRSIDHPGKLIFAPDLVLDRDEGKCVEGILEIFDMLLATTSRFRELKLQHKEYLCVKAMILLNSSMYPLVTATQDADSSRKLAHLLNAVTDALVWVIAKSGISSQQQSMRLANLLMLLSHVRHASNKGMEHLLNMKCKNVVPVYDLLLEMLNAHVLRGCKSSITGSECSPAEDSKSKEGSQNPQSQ

Estrogen receptor [3] = target: T2, Estrogen receptor (Homo sapiens, UniProt P03372); experiment: Inhibition of fluorescein-tagged estrogen binding to GST-tagged ERalpha (unknown origin) ligand binding domain after 1 hr by LanthaScreen TR-FRET assay
T2 sequence (P03372 whole entry): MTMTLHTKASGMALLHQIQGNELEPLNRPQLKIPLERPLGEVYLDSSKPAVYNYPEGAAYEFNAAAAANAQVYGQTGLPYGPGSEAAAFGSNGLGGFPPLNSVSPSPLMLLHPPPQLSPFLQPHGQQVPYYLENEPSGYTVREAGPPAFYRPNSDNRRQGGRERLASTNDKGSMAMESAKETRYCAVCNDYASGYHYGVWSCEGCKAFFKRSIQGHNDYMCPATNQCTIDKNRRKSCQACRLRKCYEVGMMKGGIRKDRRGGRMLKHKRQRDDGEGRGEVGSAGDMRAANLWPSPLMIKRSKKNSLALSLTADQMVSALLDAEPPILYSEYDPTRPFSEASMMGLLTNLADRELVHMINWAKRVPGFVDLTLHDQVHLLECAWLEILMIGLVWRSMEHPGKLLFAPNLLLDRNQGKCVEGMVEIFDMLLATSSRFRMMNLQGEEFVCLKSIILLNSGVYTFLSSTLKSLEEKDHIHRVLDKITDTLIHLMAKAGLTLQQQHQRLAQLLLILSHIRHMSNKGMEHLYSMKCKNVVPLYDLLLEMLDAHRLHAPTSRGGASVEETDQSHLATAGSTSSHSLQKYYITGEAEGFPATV

Estrogen receptor [4] = target: T2, Estrogen receptor; experiment: Agonist activity at full length ERalpha (unknown origin) after 24 hrs by ERE-driven luciferase reporter gene assay
Estrogen receptor beta [5] = target: T1, Estrogen receptor beta; experiment: Agonist activity at full length ERbeta (unknown origin) after 24 hrs by cell based ERE-driven luciferase reporter gene assay
Estrogen receptor [6] = target: T2, Estrogen receptor; experiment: Antagonist activity at full length ERalpha (unknown origin) assessed as reduction in E2 induced response after 24 hrs by cell based ERE-driven luciferase reporter gene assay
Estrogen receptor beta [7] = target: T1, Estrogen receptor beta
Description: Antagonist activity at full length ERbeta (unknown origin) assessed as reduction in E2 induced response after 24 hrs by cell based ERE-driven luciferase reporter gene assay

[8] = target: Mineralocorticoid receptor (Homo sapiens) (UniProt P08235); experiment: Agonist activity at GAL4 DNA-binding domain fused MR (unknown origin) ligand binding domain expressed in UAS-bla […] assessed as beta-lactamase transcriptional activation by FRET-based GeneBLAzer assay; assay type: cell-based
Chain of Mineralocorticoid receptor (Homo sapiens) (P08235 whole entry, the tested form may be a part): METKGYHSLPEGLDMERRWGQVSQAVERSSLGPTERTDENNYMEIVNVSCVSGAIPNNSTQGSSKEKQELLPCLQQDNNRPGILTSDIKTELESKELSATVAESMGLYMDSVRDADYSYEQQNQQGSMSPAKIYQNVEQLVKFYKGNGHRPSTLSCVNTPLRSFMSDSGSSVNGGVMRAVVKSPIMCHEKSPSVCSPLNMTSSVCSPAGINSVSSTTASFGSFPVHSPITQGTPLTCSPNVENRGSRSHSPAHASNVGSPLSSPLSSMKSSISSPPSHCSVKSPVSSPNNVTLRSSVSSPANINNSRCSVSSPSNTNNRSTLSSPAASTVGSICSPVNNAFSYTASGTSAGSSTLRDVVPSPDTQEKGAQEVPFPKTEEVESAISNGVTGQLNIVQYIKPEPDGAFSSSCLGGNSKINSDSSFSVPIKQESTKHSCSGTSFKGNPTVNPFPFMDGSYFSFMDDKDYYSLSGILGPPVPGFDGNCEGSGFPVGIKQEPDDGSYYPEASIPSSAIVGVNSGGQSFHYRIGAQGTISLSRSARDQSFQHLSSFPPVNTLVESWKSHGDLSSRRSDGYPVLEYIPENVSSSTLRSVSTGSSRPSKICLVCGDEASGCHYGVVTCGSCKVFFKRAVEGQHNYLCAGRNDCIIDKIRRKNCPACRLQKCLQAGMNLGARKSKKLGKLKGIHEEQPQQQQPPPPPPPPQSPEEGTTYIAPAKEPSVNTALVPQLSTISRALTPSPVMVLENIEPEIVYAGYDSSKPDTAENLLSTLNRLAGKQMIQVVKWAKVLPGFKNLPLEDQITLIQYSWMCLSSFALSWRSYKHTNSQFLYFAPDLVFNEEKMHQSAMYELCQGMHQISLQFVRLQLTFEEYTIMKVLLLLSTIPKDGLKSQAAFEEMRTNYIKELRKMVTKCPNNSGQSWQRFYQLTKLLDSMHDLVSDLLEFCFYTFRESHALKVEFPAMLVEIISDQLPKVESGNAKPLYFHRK

[9] = target: Peroxisome proliferator-activated receptor delta (Homo sapiens) (UniProt Q03181); experiment: as §1; assay type: cell-based
Chain of Peroxisome proliferator-activated receptor delta (Homo sapiens) (Q03181 whole entry, the tested form may be a part): as the sequence (Q03181 whole entry, the tested form may be a part) above

[10] = target: Progesterone receptor (Homo sapiens) (UniProt P06401); experiment: Agonist activity at GAL4 DNA-binding domain fused PR (unknown origin) ligand binding domain expressed in UAS-bla HEK 293T cells assessed as beta-lactamase transcriptional activation by FRET-based GeneBLAzer assay; assay type: cell-based
Chain of Progesterone receptor (Homo sapiens) (P06401 whole entry, the tested form may be a part): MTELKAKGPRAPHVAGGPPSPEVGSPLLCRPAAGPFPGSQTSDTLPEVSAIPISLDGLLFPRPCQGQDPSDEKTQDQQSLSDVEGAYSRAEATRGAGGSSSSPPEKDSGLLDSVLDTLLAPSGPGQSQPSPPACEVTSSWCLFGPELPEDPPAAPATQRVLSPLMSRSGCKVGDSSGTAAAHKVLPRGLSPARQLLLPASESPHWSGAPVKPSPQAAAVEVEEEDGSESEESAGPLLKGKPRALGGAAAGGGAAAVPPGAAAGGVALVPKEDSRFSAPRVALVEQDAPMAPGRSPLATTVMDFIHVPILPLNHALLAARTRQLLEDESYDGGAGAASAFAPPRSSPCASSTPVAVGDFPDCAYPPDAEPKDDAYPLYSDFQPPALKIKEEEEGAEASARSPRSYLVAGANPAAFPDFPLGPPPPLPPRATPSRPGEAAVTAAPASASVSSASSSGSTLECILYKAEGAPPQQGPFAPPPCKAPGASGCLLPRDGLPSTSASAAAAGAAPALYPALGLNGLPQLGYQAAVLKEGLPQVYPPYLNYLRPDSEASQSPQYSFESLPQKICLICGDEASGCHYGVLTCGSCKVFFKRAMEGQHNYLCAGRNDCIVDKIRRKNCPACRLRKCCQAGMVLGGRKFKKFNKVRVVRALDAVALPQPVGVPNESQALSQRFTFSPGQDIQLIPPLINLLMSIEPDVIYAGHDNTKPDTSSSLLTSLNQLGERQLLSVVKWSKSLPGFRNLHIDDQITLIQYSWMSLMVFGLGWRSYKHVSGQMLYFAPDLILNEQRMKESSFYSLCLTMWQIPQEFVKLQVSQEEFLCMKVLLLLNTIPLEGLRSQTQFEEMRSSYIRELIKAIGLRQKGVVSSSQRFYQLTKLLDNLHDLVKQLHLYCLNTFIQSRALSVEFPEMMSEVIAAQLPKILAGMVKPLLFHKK

[11] = target: Vitamin D3 receptor (Homo sapiens) (UniProt P11473); experiment: Agonist activity at GAL4 DNA-binding domain fused VDR (unknown origin) ligand binding domain expressed in UAS-bla HEK 293T cells assessed as beta-lactamase transcriptional activation by FRET-based GeneBLAzer assay; assay type: cell-based
Chain of Vitamin D3 receptor (Homo sapiens) (P11473 whole entry, the tested form may be a part): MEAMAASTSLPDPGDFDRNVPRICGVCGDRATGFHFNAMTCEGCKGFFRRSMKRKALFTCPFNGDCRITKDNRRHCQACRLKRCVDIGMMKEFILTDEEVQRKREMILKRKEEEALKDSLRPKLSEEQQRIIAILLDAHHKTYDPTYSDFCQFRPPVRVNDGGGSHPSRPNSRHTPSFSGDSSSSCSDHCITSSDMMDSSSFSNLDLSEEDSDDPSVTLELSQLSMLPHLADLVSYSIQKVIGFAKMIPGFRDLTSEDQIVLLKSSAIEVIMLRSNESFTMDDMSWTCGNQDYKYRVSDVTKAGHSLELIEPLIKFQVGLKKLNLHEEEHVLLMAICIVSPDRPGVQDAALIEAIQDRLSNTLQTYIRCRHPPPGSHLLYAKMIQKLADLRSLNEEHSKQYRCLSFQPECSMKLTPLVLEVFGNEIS

[12] = target: Estrogen receptor (Homo sapiens) (UniProt P03372); experiment: Agonist activity at GAL4 DNA-binding domain fused ERalpha (unknown origin) ligand binding domain expressed in UAS-bla GripTite 293 cells assessed as beta-lactamase transcriptional activation by FRET-based GeneBLAzer assay; assay type: cell-based
Estrogen receptor beta [13] = target: T1, Estrogen receptor beta; experiment: Agonist activity at ERbeta (unknown origin) ligand binding domain assessed as fluorescein-labeled coactivator peptide recruitment by LanthaScreen TR-FRET assay
Estrogen receptor beta [14] = target: T1, Estrogen receptor beta; experiment: Agonist activity at GAL4 DNA-binding domain fused ERbeta (unknown origin) ligand binding domain expressed in UAS-bla GripTite 293 cells assessed as beta-lactamase transcriptional activation by FRET-based GeneBLAzer assay; assay type: cell-based
Estrogen receptor [15] = target: T2, Estrogen receptor; experiment: Agonist activity at ERalpha (unknown origin) ligand binding domain assessed as fluorescein-labeled coactivator peptide recruitment by LanthaScreen TR-FRET assay
Homo sapiens [16] = organism: Homo sapiens; experiment: Selectivity index, ratio of EC50 for ERalpha (unknown origin) LBD by fluorescein-labeled coactivator peptide recruitment based LanthaScreen TR-FRET assay to EC50 for ERbeta (unknown origin) LBD by fluorescein-labeled coactivator peptide recruitment based LanthaScreen TR-FRET assay
Homo sapiens [17] = organism: Homo sapiens; experiment: Selectivity index, ratio of IC50 for full-length human ERalpha to IC50 for full length human ERbeta
Homo sapiens [18] = organism: Homo sapiens; experiment: Selectivity ratio for ERbeta (unknown origin) over ERalpha (unknown origin)

EC50 (Estrogen receptor beta [2]) [µM]	EC50 (Estrogen receptor [4]) [µM]	EC50 (Estrogen receptor beta [5]) [µM]	EC50 (Estrogen receptor [6]) [µM]	EC50 (Estrogen receptor beta [7]) [µM]	Structure (SMILES)	further results
–	–	–	–	–	CCCc1c(OCCCOc2ccc(OCC(=O)O)cc2)ccc(C(C)=O)c1O	IC50 [1]: 0.0126 µM
0.099	> 10	0.121	> 10	> 10	OC[C@H]1CCC[C@@H](c2ccc(O)cc2)CC1	EC50 (Estrogen receptor [3]): 0.221 µM
–	–	–	–	–	C=Cc1cc(O)cc2nc(-c3ccc(O)c(F)c3)oc12	Ratio IC50 (Homo sapiens [17]): 255
–	–	–	–	–	C=Cc1cc(O)cc2nc(-c3ccc(O)cc3)oc12	Selectivity ratio (Homo sapiens [18]): 127
–	–	–	–	–	N#Cc1cc(O)cc2c3c(oc12)-c1ccc(O)cc1CC3	Selectivity ratio (Homo sapiens [18]): 157
0.042	> 10	0.362	> 10	> 10	Oc1ccc(C2CCCC(O)CC2)cc1 (racemic)	–

Structure (SMILES)	EC50 (Estrogen receptor beta [2]) [µM]	EC50 (Estrogen receptor [4]) [µM]	EC50 (Estrogen receptor beta [5]) [µM]	EC50 (Estrogen receptor [6]) [µM]	EC50 (Estrogen receptor beta [7]) [µM]	further results
OC[C@@H]1CCC[C@H](c2ccc(O)cc2)CC1	0.066	> 11.6	0.051	> 11.6	> 11.6	EC50 (Estrogen receptor [3]): 0.199 µM; Activity [8]: inactive; Activity [9]: inactive; Activity [10]: inactive; Activity [11]: inactive; Activity [12]: Active; EC50 (Estrogen receptor beta [13]): 0.566 µM; Activity (Estrogen receptor beta [14]): Active; EC50 (Estrogen receptor [15]): 2.66 µM; Ratio EC50 (Homo sapiens [16]): 4.7
